{"source": "patent US11850273B2", "about": "“Chemical reprogramming of human glial cells into neurons for brain and spinal cord repair” (The Penn State Research Foundation, priority 2014, dated 2023)", "test_system": "human astrocyte-converted neurons", "assay": "Patch clamp whole-cell recordings of human astrocyte-converted neurons"}
{"substance": "DNQX", "values": [{"measurement": "effect on spontaneous burst activities", "value": "abolished"}]}
